Data on six compounds can be found in paper PMC8899577, “Targeting the anti-apoptotic Bcl-2 family proteins: machine learning virtual screening and biological evaluation of new small molecules” (Theranostics, 2022).

Each structure is given as a SMILES string.

One experiment addresses Bcl-2 (Homo sapiens, UniProt P10415). The experiment in a line: SPR binding to immobilized Bcl-2. Particulars: SPR, 25 °C, 2-site fit, highest affinity site. The protocol:
(§1) FastStep experiments were performed with a SensiQ Pioneer apparatus. Bcl-2 immobilization on COOH5 sensorchips was carried out essentially as previously reported, [40]. All the experiments were carried out at 25 °C in degassed HEPES 20 mM, pH 7.4, NaCl 150 mM, 0.005% surfactant P20 + 2% DMSO (HBSP2%D). […] Each sensorgram is the average of at least three experiments. The decrease in Response Units (RU) after 165 s indicates analyte dissociation from the immobilized Bcl-2 upon HSBP2%D buffer injection. Control SPR experiments were carried out measuring sensorgrams on Bcl-xL and Mcl-1 (ligands) immobilized on COOH5 sensorchips as previously reported at 25 °C in degassed HBSP2%D buffer. […] Each sensorgram is the average of at least three experiments. The decrease in RU after 180 s indicates analyte dissociation from the immobilized ligands upon HSBP2%D buffer injection. Kinetic evaluation of the sensorgrams was carried out using the Qdat 4.0 program; best fittings were obtained with 2 sites and indicated in red (reported KD values refer to dissociation constants of the highest affinity site).
Figure 2 SPR analysis of the interaction between putative inhibitors of Bcl-2 anti-apoptotic members and Bcl-2 protein. Bcl-2 was immobilized via amine coupling onto a COOH5 sensorchip; Bcl-2 family inhibitors (analytes) were injected at a flow rate = 100 μL/min, at the following concentrations. 0-30 s: 0.625 μM; 31-60 s: 1.25 μM; 61-90 s: 2.5 μM; 91-120 s: 5 μM; 121-150 s: 10 μM; 151-165 s: 20 μM. The increase in Response Units (RU) relative to baseline indicates complex formation between the immobilized Bcl-2 ligand and the analytes upon Bcl-2 family inhibitors injection. The decrease in RU after 165 s indicates analyte dissociation from the immobilized Bcl-2 upon buffer injection. Full fittings with 2 sites are indicated in red. The fitted KD values are the following.

Experiment [1] has as its system M14 cells. The experiment in a line: Western blot of LC3B-I/LC3B-II (autophagy), M14. It is filed as cell-based, Human. Particulars: 72 h. The protocol:
(§2) Western blot analyses of total protein extracts were performed as previously described. Immunodetection was performed using antibodies directed to poly (ADP-ribose) polymerase (PARP; BD Biosciences San Diego, CA, USA), LC3B (Cell Signaling Technology, Danvers, MA), HSP72/73 (Calbiochem, EMD Biosciences, La Jolla, CA), Bcl-2 (SC-509, Santa Cruz Biotechnology Inc, Dallas, TX, USA), Bcl-xL (SC-271121, Santa Cruz Biotechnology Inc), Mcl-1 (SC-12756, Santa Cruz Biotechnology Inc) α-tubulin (Santa Cruz Biotechnology Inc) actin (Sigma-Aldrich, St. Louis, Missouri, USA). Anti-rabbit or anti-mouse immunoglobulin G-horseradish peroxidase-conjugated antibodies (Amersham Biosciences, Freiburg, Germany) were used as secondary antibody. Images were acquired by Image Lab Software (Bio-Rad, Hercules, CA, USA), using a ChemiDoc System instrument (Bio-Rad). The densitometric evaluation was performed using Image J software and normalized with relative controls.
Figure 6 Analysis of autophagosome accumulation in M14 and H1299 cells after treatment with IS20 or IS21. Western blot analysis of LC3B-I and LC3B-II protein levels in (A) M14, and (B) H1299 cell lines untreated (Ctrl) or treated with IS20 or IS21 for 72 h at the indicated concentrations. (C) Western blot analysis of LC3B-I and LC3B-II levels in HL60 and U937 cell lines untreated (Ctrl) or treated with IS20 or IS21 (20 μM for 24 h). (A-C) Reported images are representative of two independent experiments with similar results. HSP72/73, Actin or α-Tubulin are shown as loading and transferring control. […] Ratio of LC3B-II on LC3B-I levels, after normalization on HSP72/73, Actin or α-Tubulin, is quantified by densitometric analysis. (D) (Upper panels) Representative images and (lower panels) relative quantification of fluorescence microscopic analysis of LC3B puncta positive cells in M14 EGFP-LC3B and H1299 EGFP-LC3B transfected cells, treated with IS20 or IS21 (20 µM for 72h). […] Cells with more than 10 puncta were considered autophagy-positive. p-values were calculated between untreated (Ctrl) and treated cells, * p < 0.05.

The subject of experiment [2] is M14 cells. The experiment in a line: Western blot of PARP1 cleavage, M14. It is filed as cell-based, Human. Particulars: 72 h. The method, then: as §2
Figure 5 Analysis of apoptosis induction by IS20 and IS21 in leukemia, melanoma and NSCLC cells. […] (A-F) Reported images are representative of two independent experiments with similar results. HSP72/73 or α-Tubulin are shown as loading and transferring control. (G) Flow cytometric quantification of cells in the subG1 peak of cell cycle distribution by propidium iodide staining in HL60 cell line treated with IS20 or IS21 (20 μM for 24 h) and in M14, H1299 and MDA-MB-231 cell lines treated with IS20 or IS21 (20 μM for 72 h). Data are reported as mean ± SD of three independent experiments. p-values were calculated between control (Ctrl) and treated cells, * p < 0.05. (H) Flow cytometric quantification of cells in the subG1 peak by propidium iodide staining in M14 and H1299 cell lines treated with IS20 or IS21 (20 μM, 72 h) in presence or absence of the pan caspase inhibitor z-VAD (50 μM). p-values were calculated between treated control (Ctrl) cells, # p < 0.01, ## p < 0.001 or between cells treated with IS20 or IS21 alone or in combination with z-VAD, * p < 0.05, ** p < 0.005. (G-H) Data are reported as mean of two (H) or three (G) experiments ± SD.

The next experiment concerns the target Mcl-1 (Homo sapiens, UniProt Q07820). The experiment in a line: SPR binding to immobilized Mcl-1. To be noted: analyte 0.3-30 µM. The method, then:
as §1
Figure 3 SPR analysis of the interaction between IS20 or IS21 and Bcl-xL and Mcl-1 proteins. SPR experiments were carried out measuring sensorgrams on Bcl-xL and Mcl-1 (ligands) immobilized on COOH5 sensorchips at 25 °C in degassed HBSP2%D buffer. IS20 and IS21 (analytes) were injected at a flow rate = 30 μL/min, at the following concentrations: 0.3 μM (only for Mcl-1 experiments); 1 μM; 3 μM; 10 μM; 30 μM. Each sensorgram is the average of at least three experiments. The decrease in RU (Response Units) after 180 s indicates analyte dissociation from the immobilized ligands upon HSBP2%D buffer injection. The fitted KD values for Bcl-xL are the following. IS20: 0.42 ± 0.09 μM and IS21: 0.51 ± 0.17 μM. The fitted KD values for Mcl-1are the following. IS20: 3.9 ± 0.30 μM and IS21: 1.16 ± 0.14 μM;

Bcl-2, sequence (P10415 whole entry): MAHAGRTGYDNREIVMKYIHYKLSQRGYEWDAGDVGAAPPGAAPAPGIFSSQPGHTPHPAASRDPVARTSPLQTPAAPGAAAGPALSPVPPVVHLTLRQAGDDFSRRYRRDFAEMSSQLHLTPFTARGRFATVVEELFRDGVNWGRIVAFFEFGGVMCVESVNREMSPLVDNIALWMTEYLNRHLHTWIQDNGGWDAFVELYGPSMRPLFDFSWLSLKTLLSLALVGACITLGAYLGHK
Mcl-1, sequence (Q07820 whole entry): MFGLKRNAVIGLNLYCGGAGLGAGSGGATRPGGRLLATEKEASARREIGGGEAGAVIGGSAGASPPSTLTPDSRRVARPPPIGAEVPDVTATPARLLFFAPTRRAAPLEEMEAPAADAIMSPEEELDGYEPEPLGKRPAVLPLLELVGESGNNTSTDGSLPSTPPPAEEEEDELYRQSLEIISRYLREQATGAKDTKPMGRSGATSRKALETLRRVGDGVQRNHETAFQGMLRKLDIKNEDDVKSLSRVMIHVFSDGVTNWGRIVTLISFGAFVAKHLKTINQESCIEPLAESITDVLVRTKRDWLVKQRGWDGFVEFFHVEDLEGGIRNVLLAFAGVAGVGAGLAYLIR

Regarding `O=C(CN1CCN(Cc2ccccc2Cl)CC1)N/N=C/c1ccccc1C(F)(F)F` [IS27], on Bcl-2, the Kd is 4600 ± 900 nM. For `CC1(C)CCC(c2ccc(Cl)cc2)=C(CN2CCN(c3ccc(C(=O)NS(=O)(=O)c4ccc(N[C@H](CCN5CCOCC5)CSc5ccccc5)c(S(=O)(=O)C(F)(F)F)c4)cc3)CC2)C1` [ABT-263, navitoclax, reference compound], the “ratio of LC3B-II on LC3B-I / LC3B-II protein level, M14” value in the experiment with M14 cells [1] is listed as “increased”. Besides, in the experiment on M14 cells [2], the “PARP1 cleavage, M14” value is “PARP1 cleavage”. `CC(C)(C)c1ccc(-c2nnc(SCc3ccccc3F)n2N)cc1` [IS29]: the equilibrium dissociation constant (Kd) at Bcl-2 is 3400 ± 1100 nM. At Bcl-2, `COc1ccc(-c2cc(C(F)F)nc(N3CCN(Cc4ccccc4C)CC3)n2)cc1OC` [ISP] had a Kd of 770 ± 140 nM. `CC(C)(C)c1ccc(C=NN2CCN(Cc3ccccc3Cl)CC2)cc1` [IS1] displayed a Kd on Bcl-2 of 480 ± 110 nM. Turning to `CC1(C)CCC(CN2CCN(c3ccc(C(=O)NS(=O)(=O)c4ccc(NCC5CCOCC5)c([N+](=O)[O-])c4)c(Oc4cnc5[nH]ccc5c4)c3)CC2)=C(c2ccc(Cl)cc2)C1` [ABT-199, venetoclax, reference compound], on Mcl-1, the “interaction with Mcl-1 (SPR)” value is on record as “negligible interaction”. For the same compound, in the experiment with M14 cells [2], the “PARP1 cleavage, M14” value is reported as “PARP1 cleavage”.
